# Entries after “also recorded” stand apart in the source; their conditions may differ.
# What was measured:
# [1] = test system: PDAC cell lines; experiment: Clonogenic growth (colony formation) assay; type: cell-based, human; settings: all PDAC cell lines tested, 11-14 days
# Description: PDAC cells are sensitive to chemical inhibition of CPSF3. CPSF3 was recently identified as the target for the small molecule JTE-607. JTE-607 is a prodrug that, when metabolized by the ester hydrolyzing enzyme carboxylesterase 1 (CES1), binds to CPSF3 and inhibits its catalytic activity, impairing the processing of newly synthesized mRNAs. As genetic depletion of CPSF3 attenuated PDAC cell proliferation (FIG. 1), it 2as hypothesized that pharmacologic inhibition of CPSF3 with JTE-607 could represent a novel therapeutic approach in PDAC. The sensitivity of multiple human pancreatic cell lines, both non-transformed and PDAC, to JTE-607 in a 72-hour dose-response cell viability assay was examined. […] To examine if sensitivity to CPSF3 inhibition was associated with proliferation rate, the relationship between cell line doubling time and JTE-607 sensitivity was assessed. […] Next, the effect of JTE-607 on cell proliferation by treating cells with increasing concentrations of JTE-607 and assessing cell viability in a time-dependent fashion (FIGS. 2C-2E) was determined. […]
# JTE-607 studies. […] The next day, JTE-607 was titrated over a range of concentrations using the Tecan D300e Digital Dispenser and cell viability was measured 72 hours post drug titration using a CellTiter-Glo Luminescent Cell Viability Assay Kit (Promega). […] Colony area was measured using ImageJ software. […]
# [2] = healthy human volunteers; cited from earlier work
compound,measurement,setting,value
CCOC(=O)[C@H](Cc1ccccc1)NC(=O)c1cc(Cl)c(OCCN2CCN(C)CC2)c(Cl)c1O [JTE-607],colony formation,[1],significantly decreased colony formation
same,adverse events,[2],no serious adverse effects; also recorded: no severe adverse events reported
